According to paper PMC8237303 (Heliyon, 2021):

Key:
CCK B receptor (Human) = CCK B receptor (Human) (Homo sapiens, UniProt P32239); assay: [125I]-Cholecystokinin Octapeptide binding assay; conditions: 0.1 mM l-menthol; Human recombinant
[1] = target: Muscarinic M2 receptor (Human) (Homo sapiens, UniProt P08172); assay: [3H]-Scopolamine Methyl Chloride binding assay; conditions: 0.1 mM l-menthol; Human recombinant
[2] = target: Muscarinic M4 receptor (Human) (Homo sapiens, UniProt P08173); assay: [3H]-Scopolamine Methyl Chloride binding assay; conditions: 0.1 mM l-menthol; Human recombinant
[3] = target: Adenosine A2a receptor (Human) (Homo sapiens, UniProt P29274); assay: [3H]-CGS21680 binding assay; conditions: 0.1 mM l-menthol; Human recombinant
Adenosine A2a receptor (Human), sequence (P29274 whole entry): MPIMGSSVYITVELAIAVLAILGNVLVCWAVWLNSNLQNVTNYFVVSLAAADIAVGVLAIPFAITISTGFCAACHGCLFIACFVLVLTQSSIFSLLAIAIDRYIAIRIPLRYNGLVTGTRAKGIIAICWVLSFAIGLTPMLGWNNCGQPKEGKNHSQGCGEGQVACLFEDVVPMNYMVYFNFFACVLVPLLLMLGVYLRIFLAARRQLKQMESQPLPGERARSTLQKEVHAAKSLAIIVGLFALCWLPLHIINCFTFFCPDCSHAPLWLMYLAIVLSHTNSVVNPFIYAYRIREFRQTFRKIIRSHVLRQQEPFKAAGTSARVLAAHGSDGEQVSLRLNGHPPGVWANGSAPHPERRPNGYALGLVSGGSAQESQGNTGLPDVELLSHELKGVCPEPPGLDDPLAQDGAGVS

[4] = target: Endothelin ETA receptor (Human) (Homo sapiens, UniProt P25101); assay: [125I]-Endothelin-1; format: binding; conditions: 0.1 mM l-menthol; Human recombinant
Endothelin ETA receptor (Human), sequence (P25101 21-427): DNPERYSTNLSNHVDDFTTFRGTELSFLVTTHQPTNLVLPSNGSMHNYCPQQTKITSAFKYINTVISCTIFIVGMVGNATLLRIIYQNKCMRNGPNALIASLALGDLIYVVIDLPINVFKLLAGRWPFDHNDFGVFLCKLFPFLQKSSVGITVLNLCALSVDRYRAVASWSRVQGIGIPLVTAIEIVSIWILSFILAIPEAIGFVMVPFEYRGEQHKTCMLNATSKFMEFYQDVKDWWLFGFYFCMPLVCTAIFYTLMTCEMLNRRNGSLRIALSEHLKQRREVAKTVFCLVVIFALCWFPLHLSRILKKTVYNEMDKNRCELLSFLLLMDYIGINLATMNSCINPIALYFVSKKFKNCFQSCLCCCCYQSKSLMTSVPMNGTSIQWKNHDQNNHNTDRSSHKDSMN

[5] = target: Dopamine D2 receptor short isoform (Human) (Homo sapiens, UniProt P14416); assay: [3H]-Spiperone binding assay; conditions: 0.1 mM l-menthol; Human recombinant
Dopamine D2 receptor short isoform (Human), sequence (P14416 1-414 isoform P14416-2): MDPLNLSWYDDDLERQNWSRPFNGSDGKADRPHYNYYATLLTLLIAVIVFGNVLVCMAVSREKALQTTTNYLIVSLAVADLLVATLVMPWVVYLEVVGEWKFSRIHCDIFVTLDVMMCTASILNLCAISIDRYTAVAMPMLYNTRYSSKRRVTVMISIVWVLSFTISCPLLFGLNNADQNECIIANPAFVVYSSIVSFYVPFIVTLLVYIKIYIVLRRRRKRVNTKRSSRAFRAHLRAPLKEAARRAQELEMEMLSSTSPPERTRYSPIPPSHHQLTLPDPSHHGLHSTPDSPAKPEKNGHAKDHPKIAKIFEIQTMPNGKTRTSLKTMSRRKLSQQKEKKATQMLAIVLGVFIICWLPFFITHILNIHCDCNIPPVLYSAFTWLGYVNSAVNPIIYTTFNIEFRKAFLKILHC

[6] = target: Bradykinin B2 receptor (Human) (Homo sapiens, UniProt P30411); assay: [3H]-Bradykinin binding assay; conditions: 0.1 mM l-menthol; Human recombinant
[7] = target: Neuropeptide Y2 receptor (Human) (Homo sapiens, UniProt P49146); assay: [125I]-Peptide YY; format: binding; conditions: 0.1 mM l-menthol; Human receptor (Non-recombinant)
IP3 receptor = assay: D-[3H]-Inositol-1,4,5-Triphosphate binding assay; conditions: 0.1 mM l-menthol; Rat cerebellum
[8] = target: Neurokinin NK3 receptor (Human) (Homo sapiens, UniProt P29371); assay: [125I]-Neurokinin B; format: binding; conditions: 0.1 mM l-menthol; Human recombinant
[9] = tested on: Glycine receptor (Strychnine sensitive); format: binding; conditions: 0.1 mM l-menthol; Rat spinal cord
Leukotriene B4 receptor = assay: [3H]-Leukotriene B4 binding assay; conditions: 0.1 mM l-menthol; Guinea pig lung
K Channel KATP = assay: [3H]-Glybenclamide binding assay; conditions: 0.1 mM l-menthol; Rat whole brain
K Channel SkCa = assay: [125I]-Apamin binding assay; conditions: 0.1 mM l-menthol; Rat whole brain
[10] = target: Glutamate receptor (NMDAglycine site) (Rattus norvegicus, UniProt P35439); assay: [3H]-MDL105,519 binding assay; conditions: 0.1 mM l-menthol; Rat cerebral cortex
[11] = target: Histamine H2 receptor (Human) (Homo sapiens, UniProt P25021); assay: [3H]-Tiotidine binding assay; conditions: 0.1 mM l-menthol; Human recombinant
[12] = target: β1-Adrenergic receptor (Human) (Homo sapiens, UniProt P08588); assay: [3H]-; format: binding; conditions: 0.1 mM l-menthol; Human recombinant
β1-Adrenergic receptor (Human), sequence (P08588 whole entry): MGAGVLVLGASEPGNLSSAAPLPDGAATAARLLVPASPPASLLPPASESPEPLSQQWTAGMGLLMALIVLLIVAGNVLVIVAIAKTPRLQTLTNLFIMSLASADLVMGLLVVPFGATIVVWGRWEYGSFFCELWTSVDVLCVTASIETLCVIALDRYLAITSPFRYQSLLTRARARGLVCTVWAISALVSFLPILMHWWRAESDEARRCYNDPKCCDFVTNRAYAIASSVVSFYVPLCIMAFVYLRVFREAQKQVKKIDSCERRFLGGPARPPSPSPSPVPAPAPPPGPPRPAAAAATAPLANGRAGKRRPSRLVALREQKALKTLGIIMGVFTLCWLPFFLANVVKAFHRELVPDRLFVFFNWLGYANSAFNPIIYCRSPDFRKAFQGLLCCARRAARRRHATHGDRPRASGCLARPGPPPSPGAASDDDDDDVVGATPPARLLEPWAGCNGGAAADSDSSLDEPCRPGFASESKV

[13] = target: Dopamine transporter (Human) (Homo sapiens, UniProt Q01959); assay: [3H]-WIN35,428 binding assay
Dopamine transporter (Human), sequence (Q01959 whole entry): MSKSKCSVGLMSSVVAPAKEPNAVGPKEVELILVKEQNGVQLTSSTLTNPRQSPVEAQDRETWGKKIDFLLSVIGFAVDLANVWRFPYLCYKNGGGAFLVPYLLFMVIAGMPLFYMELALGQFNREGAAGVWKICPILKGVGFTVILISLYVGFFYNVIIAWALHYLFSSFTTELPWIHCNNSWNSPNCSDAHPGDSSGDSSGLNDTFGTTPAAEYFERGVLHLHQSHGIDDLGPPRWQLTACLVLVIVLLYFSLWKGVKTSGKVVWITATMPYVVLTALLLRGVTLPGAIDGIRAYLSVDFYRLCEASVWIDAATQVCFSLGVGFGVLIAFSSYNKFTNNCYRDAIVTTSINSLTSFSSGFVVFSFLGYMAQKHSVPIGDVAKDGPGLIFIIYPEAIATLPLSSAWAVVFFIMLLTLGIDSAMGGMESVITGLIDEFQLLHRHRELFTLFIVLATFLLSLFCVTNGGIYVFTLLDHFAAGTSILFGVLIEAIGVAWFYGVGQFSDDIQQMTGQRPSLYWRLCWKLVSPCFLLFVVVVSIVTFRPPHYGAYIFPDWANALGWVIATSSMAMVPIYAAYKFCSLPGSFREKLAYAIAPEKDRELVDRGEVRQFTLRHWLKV

[14] = target: Melatonin MT1 receptor (Human) (Homo sapiens, UniProt P48039); assay: [125I]-Melatonin binding assay; conditions: 0.1 mM l-menthol; Human recombinant
[15] = tested on: Glutamate receptor (Kainate); assay: [3H]-Kainic Acid binding assay; conditions: 0.1 mM l-menthol; Rat whole brain
[16] = target: Testosterone receptor (Human) (Homo sapiens, UniProt P10275); assay: [3H]-Methyltrienolone; format: binding; conditions: 0.1 mM l-menthol
Testosterone receptor (Human), sequence (P10275 whole entry): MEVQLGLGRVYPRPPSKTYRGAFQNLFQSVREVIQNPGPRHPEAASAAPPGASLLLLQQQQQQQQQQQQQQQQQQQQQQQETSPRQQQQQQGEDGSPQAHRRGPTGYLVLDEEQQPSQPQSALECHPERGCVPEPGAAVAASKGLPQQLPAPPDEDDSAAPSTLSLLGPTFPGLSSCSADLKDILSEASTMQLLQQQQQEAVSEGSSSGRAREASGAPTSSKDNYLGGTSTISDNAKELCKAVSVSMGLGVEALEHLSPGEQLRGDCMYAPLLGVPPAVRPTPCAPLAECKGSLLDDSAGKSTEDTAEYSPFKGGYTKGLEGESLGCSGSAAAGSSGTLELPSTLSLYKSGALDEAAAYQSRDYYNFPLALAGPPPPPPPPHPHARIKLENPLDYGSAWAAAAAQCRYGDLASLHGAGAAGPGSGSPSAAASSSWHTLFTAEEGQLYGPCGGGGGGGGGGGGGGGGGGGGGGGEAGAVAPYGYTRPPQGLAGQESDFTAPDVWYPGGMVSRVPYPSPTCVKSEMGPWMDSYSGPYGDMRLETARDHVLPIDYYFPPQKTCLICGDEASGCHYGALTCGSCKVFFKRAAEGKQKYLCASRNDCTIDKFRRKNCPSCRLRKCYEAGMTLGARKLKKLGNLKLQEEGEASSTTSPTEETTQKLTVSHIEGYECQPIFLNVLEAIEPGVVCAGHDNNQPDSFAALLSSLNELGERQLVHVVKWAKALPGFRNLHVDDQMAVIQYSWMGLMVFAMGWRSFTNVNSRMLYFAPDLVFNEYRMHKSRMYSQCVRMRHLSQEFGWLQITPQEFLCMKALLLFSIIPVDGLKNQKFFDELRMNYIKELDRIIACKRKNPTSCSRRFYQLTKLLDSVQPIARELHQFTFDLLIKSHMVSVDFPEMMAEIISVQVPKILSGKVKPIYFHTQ

[17] = target: Neurotensin NT1 receptor (Human) (Homo sapiens, UniProt P30989); assay: [125I]-Neurotensin binding assay; conditions: 0.1 mM l-menthol; Human recombinant
Neurotensin NT1 receptor (Human), sequence (P30989 whole entry): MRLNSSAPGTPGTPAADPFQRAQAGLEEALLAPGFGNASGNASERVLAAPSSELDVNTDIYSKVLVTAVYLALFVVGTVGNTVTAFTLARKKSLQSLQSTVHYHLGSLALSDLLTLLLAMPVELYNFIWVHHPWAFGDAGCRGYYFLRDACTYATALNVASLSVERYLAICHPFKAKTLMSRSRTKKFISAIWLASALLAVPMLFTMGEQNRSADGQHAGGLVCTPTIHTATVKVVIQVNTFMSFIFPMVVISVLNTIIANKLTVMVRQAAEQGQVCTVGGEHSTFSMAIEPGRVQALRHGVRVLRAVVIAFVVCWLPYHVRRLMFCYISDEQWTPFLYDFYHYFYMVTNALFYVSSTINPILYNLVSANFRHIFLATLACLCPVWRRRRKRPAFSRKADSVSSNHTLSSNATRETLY

Leukotriene D4 receptor = Leukotriene D4 receptor (Cavia porcellus, UniProt Q2NNR5); assay: [3H]-Leukotriene D4 binding assay; conditions: 0.1 mM l-menthol; Guinea pig lung
[18] = target: Dopamine D4.2 receptor (Human) (Homo sapiens, UniProt P21917, DEL265-296); assay: [3H]-Spiperone binding assay; conditions: 0.1 mM l-menthol; Human recombinant
[19] = target: Muscarinic M3 receptor (Human) (Homo sapiens, UniProt P20309); format: binding; conditions: 0.1 mM l-menthol; Human recombinant
Muscarinic M3 receptor (Human), sequence (P20309 whole entry): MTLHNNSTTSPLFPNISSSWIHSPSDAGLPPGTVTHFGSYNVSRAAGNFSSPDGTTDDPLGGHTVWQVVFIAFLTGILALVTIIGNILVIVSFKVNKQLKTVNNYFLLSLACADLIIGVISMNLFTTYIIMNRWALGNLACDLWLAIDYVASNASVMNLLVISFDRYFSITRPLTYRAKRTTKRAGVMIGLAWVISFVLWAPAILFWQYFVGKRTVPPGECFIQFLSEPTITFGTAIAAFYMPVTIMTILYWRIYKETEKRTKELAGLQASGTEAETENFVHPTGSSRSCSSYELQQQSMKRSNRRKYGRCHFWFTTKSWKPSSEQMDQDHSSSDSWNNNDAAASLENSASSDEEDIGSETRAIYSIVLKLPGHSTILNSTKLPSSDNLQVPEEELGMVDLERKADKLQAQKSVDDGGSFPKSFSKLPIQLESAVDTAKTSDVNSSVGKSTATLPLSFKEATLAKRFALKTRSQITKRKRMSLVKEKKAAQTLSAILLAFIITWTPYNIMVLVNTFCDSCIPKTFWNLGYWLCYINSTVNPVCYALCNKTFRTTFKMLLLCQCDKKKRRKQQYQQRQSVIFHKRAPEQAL

[20] = target: Endothelin ETB receptor (Human) (Homo sapiens, UniProt P24530); assay: [125I]-Endothelin-1; format: binding; conditions: 0.1 mM l-menthol; Human recombinant
Endothelin ETB receptor (Human), sequence (P24530 27-442): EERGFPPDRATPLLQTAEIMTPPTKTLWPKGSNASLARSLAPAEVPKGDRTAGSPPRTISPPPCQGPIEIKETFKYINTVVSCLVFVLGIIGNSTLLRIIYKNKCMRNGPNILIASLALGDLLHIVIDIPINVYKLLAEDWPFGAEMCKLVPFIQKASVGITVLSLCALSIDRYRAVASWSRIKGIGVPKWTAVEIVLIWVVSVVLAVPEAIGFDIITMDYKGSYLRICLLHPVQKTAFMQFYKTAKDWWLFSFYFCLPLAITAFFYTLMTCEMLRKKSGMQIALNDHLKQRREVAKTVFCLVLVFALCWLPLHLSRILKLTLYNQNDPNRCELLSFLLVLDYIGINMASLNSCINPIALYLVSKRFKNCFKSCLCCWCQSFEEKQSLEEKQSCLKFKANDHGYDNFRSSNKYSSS

[21] = tested on: Ca Channel (Type L, Dihydropyridine); assay: [3H]-PN200-110 binding assay; conditions: 0.1 mM l-menthol; Rat cerebral cortex
CRF1 receptor (Human) = target: T1, CRF1 receptor (Human) (Homo sapiens, UniProt P34998); assay: [125I]-Corticotropin Releasing Factor; format: binding; conditions: 0.1 mM l-menthol; Human recombinant
T1 sequence (P34998 24-415): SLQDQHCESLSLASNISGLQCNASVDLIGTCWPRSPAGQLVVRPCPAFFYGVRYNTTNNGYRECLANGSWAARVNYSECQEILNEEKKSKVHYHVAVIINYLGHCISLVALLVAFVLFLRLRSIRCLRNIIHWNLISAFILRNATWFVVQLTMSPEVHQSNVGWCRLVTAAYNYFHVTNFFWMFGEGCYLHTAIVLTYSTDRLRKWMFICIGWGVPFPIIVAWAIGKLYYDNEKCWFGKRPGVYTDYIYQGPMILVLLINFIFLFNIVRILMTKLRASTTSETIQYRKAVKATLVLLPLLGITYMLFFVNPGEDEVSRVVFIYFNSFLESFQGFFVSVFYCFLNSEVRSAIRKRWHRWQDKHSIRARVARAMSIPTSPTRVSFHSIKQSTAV

[22] = target: Serotonin 5HT3 receptor (Human) (Homo sapiens, UniProt P46098); assay: [3H]-GR65630 binding assay; conditions: 0.1 mM l-menthol; Human recombinant
[23] = tested on: Ca channel (Type L, Phenylalkylamine); assay: [3H]-; format: binding; conditions: 0.1 mM l-menthol; Rat cerebral cortex
[24] = tested on: Glutamate receptor (NMDA phencycidine site); assay: [3H]-; format: binding; conditions: 0.1 mM l-menthol; Rat cerebral cortex
[25] = target: Adenosine A1 receptor (Human) (Homo sapiens, UniProt P30542); assay: [3H]8-Cyclopentyl-1,3-dipropylxanthine; format: binding; conditions: 0.1 mM l-menthol; Human recombinant
Adenosine A1 receptor (Human), sequence (P30542 whole entry): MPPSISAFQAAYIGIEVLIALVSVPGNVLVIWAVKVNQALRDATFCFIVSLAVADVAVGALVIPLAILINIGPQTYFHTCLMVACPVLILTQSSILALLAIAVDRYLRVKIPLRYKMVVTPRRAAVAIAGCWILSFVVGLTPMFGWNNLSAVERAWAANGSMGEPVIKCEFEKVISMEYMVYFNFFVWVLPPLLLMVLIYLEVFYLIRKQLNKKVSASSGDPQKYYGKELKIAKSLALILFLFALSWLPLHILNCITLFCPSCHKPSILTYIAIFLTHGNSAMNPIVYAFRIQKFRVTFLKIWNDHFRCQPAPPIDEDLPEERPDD

[26] = tested on: Ca channel (Type L, Benzothiazepine); assay: [3H]-; format: binding; conditions: 0.1 mM l-menthol; Rat cerebral cortex
GABA B receptor = GABA B receptor (Rattus norvegicus, UniProt Q9Z0U4); assay: gamma-[3H]-Aminobutyric Acid; format: binding; conditions: 0.1 mM l-menthol; Rat cerebellum
Monoamine transporter = assay: [3H]-α-Dihydrotetrabenazine binding assay; conditions: 0.1 mM l-menthol; Rabbit platelet
[27] = target: Prostanoid EP2 receptor (Human) (Homo sapiens, UniProt P43116); assay: [3H]-Prostaglandin E2 binding assay; conditions: 0.1 mM l-menthol; Human recombinant
GABA transporter = assay: gamma-[3H]-Aminobutyric Acid; format: binding; conditions: 0.1 mM l-menthol; Rat cerebral cortex; in the presence of isoguvacine hydrochloride and S (−)-baclofen hydrochloride

`CC(C)[C@@H]1CC[C@@H](C)C[C@H]1O` [l-menthol] was tested, and the “Inhibition by l-Menthol (%)” value (CCK B receptor (Human)) was 3.31%, the “Inhibition by l-Menthol (%)” value [1] was 0.37% and the “Inhibition by l-Menthol (%)” value [2] was 0%. The “Inhibition by l-Menthol (%)” value [3] was 21.62%, the “Inhibition by l-Menthol (%)” value [4] was 0% and the “Inhibition by l-Menthol (%)” value [5] was 0%. For the same molecule, the “Inhibition by l-Menthol (%)” value [6] was 7.88%, the “Inhibition by l-Menthol (%)” value [7] was 0% and the “Inhibition by l-Menthol (%)” value (IP3 receptor) was 0.12%. The “Inhibition by l-Menthol (%)” value [8] was 4.65%, the “Inhibition by l-Menthol (%)” value [9] was 0% and the “Inhibition by l-Menthol (%)” value (Leukotriene B4 receptor) was 11.63%. For the same molecule, the “Inhibition by l-Menthol (%)” value (K Channel KATP) was 2.08%, the “Inhibition by l-Menthol (%)” value (K Channel SkCa) was 2.36% and the “Inhibition by l-Menthol (%)” value [10] was 2.56%. The “Inhibition by l-Menthol (%)” value [11] was 21.17%, the “Inhibition by l-Menthol (%)” value [12] was 0% and the “Concentration dependence of inhibition of the [3H]-WIN35,428 binding” value [13] was “concentration-dependent”. The “Inhibition by l-Menthol (%)” value ([13]; 0.1 mM l-menthol, Human recombinant) was 20.67%, the IC50 ([13]; read-out: IC50 for inhibition of the [3H]-WIN35,428 binding, human recombinant dopamine transporter, 7 concentrations, duplicate) was 719 µM and the Ki ([13]; read-out: Ki (mol/L), inhibition of the binding of [3H]-WIN35,428, Dopamine transporter (Human), Ki=IC50/(1+[L/Kd])) was 0.000615 mol/L. For the same molecule, the “Inhibition by l-Menthol (%)” value [14] was 5.74%, the “Inhibition by l-Menthol (%)” value [15] was 0.14% and the “Inhibition by l-Menthol (%)” value [16] was 0%. For the same molecule, the “Inhibition by l-Menthol (%)” value [17] was 0%, the “Inhibition by l-Menthol (%)” value (Leukotriene D4 receptor) was 0% and the “Inhibition by l-Menthol (%)” value [18] was 28.19%. The “Inhibition by l-Menthol (%)” value [19] was 0%, the “Inhibition by l-Menthol (%)” value [20] was 3.39% and the “Inhibition by l-Menthol (%)” value [21] was 1.17%. The “Inhibition by l-Menthol (%)” value (CRF1 receptor (Human)) was 0%, the “Inhibition by l-Menthol (%)” value [22] was 2.21% and the “Inhibition by l-Menthol (%)” value [23] was 24.78%. For the same molecule, the “Inhibition by l-Menthol (%)” value [24] was 1.27%, the “Inhibition by l-Menthol (%)” value [25] was 1.83% and the “Inhibition by l-Menthol (%)” value [26] was 0%. For the same molecule, the “Inhibition by l-Menthol (%)” value (GABA B receptor) was 1.1%, the “Inhibition by l-Menthol (%)” value (Monoamine transporter) was 7.73% and the “Inhibition by l-Menthol (%)” value [27] was 0.66%. The “Inhibition by l-Menthol (%)” value (GABA transporter) was 10.09%.
